Data: US20160030476A1, “Compositions, Methods And Devices For Promoting Wound Healing And Reducing Infection” (IASIS MOLECULAR SCIENCES, priority 2013, published 2016)

How the values were obtained:
Assay in all cases: Therapeutic index (IC50 fibroblasts / MIC90 in broth)
[1] = tested on: multi-drug resistant Pseudomonas aeruginosa (Pseudo); assay type: cell-based
Method: (§1) The OD600 nm levels were monitored until OD600 nm of untreated control reached an OD600 nm of approximately 1.0.
(§2) Growth and Viability assays (5,000 and 10,000 cells/well respectively) were set up with human neonatal fibroblasts in sterile tissue culture treated 96 well plates in DMEM (Invitrogen #11995) supplemented with 10% fetal calf serum (Invitrogen #10437-028) 1% Antibiotic-Antimycotic (Invitrogen #15240-062). (Incubator set at 37 C and 5% CO2).
(§3) 10 μl of prepared MTS reagent (Promega # G5430) was added to the wells and absorbance at 490 nm was read once color has stabilized (1-4 hours).
(§4) The therapeutic index was calculated as the IC50/MIC90.

[2] = tested on: MRSA; assay type: cell-based, Staphylococcus aureus
Method: as §1, §2, §3, §4

[3] = tested on: multi-drug resistant Acinetobacter baumannii (AcBc); assay type: cell-based
Method: as §1, §2, §3, §4

[4] = tested on: multi-drug resistant Klebsiella pneumonia (Kleb); assay type: cell-based
Method: as §1, §2, §3, §4

In the case of N[C@@H](CCC(=O)N[C@@H](CS)C(=O)NCC(=O)O)C(=O)O.[Ag] [GSH-Ag, glutathione silver], the “Pseudo T.I.” value [1] was 2.9, the “MRSA T.I.” value [2] was 1.5 and the “AcBc T.I.” value [3] was 2.9. For the same compound, the “Kleb T.I.” value [4] was 1.4.
